Source: patent US20220105096A1, “INHIBITORS OF HUMAN IMMUNODEFICIENCY VIRUS REPLICATION” (ViiV HEALTHCARE UK (NO.5) LIMITED, priority 2019, published 2022)

Tests used:
[1] = Subcutaneous in vivo PK experiment in rat; set-up: species or system Wistar Han Rats; settings: subcutaneous injection 20 mg/kg
Method: Drug was formulated in 1% Kolliphor P188/1% PEG3350/3.5% Mannitol/94.5% Water and then administered to Wistar Han Rats as a subcutaneous injection at a dose of 20 mg/kg. Blood samples were collected at 0.167, 0.25, 0.5, 0.75, 1, 2, 3, 5, 7, 24, 48, 72, 96 h, and then every 3 days for up to 122 days. Blood samples were collected into K3EDTA tubes and centrifuged at 1500 to 2000×g to obtain plasma. Plasma samples were stored at −20° C. until analysis by LC-MS/MS.

[2] = Pharmacokinetic parameters in vivo, mouse; set-up: species or system male CD1 mice; settings: male, CD1, plasma
Method: PK was investigated in male CD1 mice, Wistar Han Rats, Cynomolgus monkeys, and Beagle Dogs. Two groups of animals (N=3 per group) received test compound either as an intravenous (IV) dose (1 mg/kg) or by oral gavage (5 mg/kg solution and suspension). Drug was formulated in 90% PEG 400, 10% ethanol for IV administration and in 90% PEG400, 5% ethanol for PO administration. Blood samples were collected at 0.167, 0.25, 0.5, 0.75, 1, 2, 3, 5, 7, 24, 48, 72 and 96 h post dose for IV; 0.25, 0.5, 0.75, 1, 2, 3, 5, 7, 24, 48, 72 and 96 h post dose for oral. Blood samples were collected into K3EDTA tubes and centrifuged at 1500 to 2000×g to obtain plasma. Plasma samples were stored at −20° C. until analysis by LC-MS/MS. All […] samples were injected on an Exion LC 4500 Triple Quad™ LC-MS/MS system. The analytical column used was a Phenomenex C18 (C18, 4.6 mm×50 mm, 5 μm) maintained at room temperature. Mobile Phase A consisted of 0.1% (v/v) formic acid in MilliQ water. Mobile Phase B consisted of 100% methanol. The flow rate was 1 mL/min. […] All LC-MS/MS analysis parameters are captured electronically in the raw data files. The PK parameters were obtained by non-compartmental analysis of plasma concentration vs time data (Phoenix WinNonlin v8). The peak concentration (Cmax) and time for Cmax (Tmax) were recorded directly from experimental observations. The area under the curve from time zero to the last sampling time [AUC0-T] and the area under the curve from time zero to infinity [AUCINF] were calculated using a combination of linear and log trapezoidal summations. The total plasma clearance (CLTp), steady-state volume of distribution (Vss), apparent elimination half-life (T-HALF), and mean residence time (MRT) were estimated after IV administration. Estimations of AUC and T-HALF were made using a minimum of three timepoints with quantifiable concentrations. The absolute oral bioavailability (F) was estimated as the ratio of dose-normalized AUC values following oral and IV doses.

[3] = Metabolism in dog liver microsomes; type: in vitro ADME
Method: (§1) Liver microsomes from human, rat dog and monkey were thawed and diluted to a final concentration of 1 mg/mL in 100 mM potassium phosphate buffer (pH 7.4). Test compounds and controls were prepared at 100× final concentration of 1 μM in 1:1 acetonitrile:water (v/v) and aliquoted into microsomal mixture. The mixture was preincubated at 37° C. in a shaking water bath for 10 minutes. The incubations were performed in duplicate. Three controls were included in the incubations; warfarin, phenacetin, and verapamil. After the preincubation, the reaction was initiated with NADPH at a final concentration of 1 mM. At 0, 5, 15, 30, 45 and 60 minutes, 25 μL of sample was removed and quenched with 300 μL of acetonitrile containing internal standard (Telmisartan). The samples were vortexed for 5 minutes at 1200 rpm and then centrifuged at 4000 rpm for 10 min. A 100 μL aliquot of supernatant was diluted three-fold with water and injected on an Exion LC 4500 Triple Quad LC-MS/MS system. Results were reported as a percentage of parent remaining and was calculated from peak area ratios of test compound remaining after at each time point and compared to time zero incubation.

[4] = Metabolism in rat liver microsomes; type: in vitro ADME; settings: pH 7.4, 1 μM compound, 1 mg/mL microsomes, NADPH, 37° C., read-out: Rat liver microsome T1/2
Method: as §1

[5] = Metabolism in human liver microsomes; type: in vitro ADME; settings: pH 7.4, 1 μM compound, 1 mg/mL microsomes, NADPH, 37° C., read-out: Human liver microsome T1/2
Method: as §1

[6] = Cytotoxicity in uninfected MT2 cells, XTT colorimetric assay; type: cell-based; settings: human, day 4, XTT, read-out: cytotoxic CC50
Method: Compound cytotoxicity and the corresponding CC50 values were determined using the same protocol as described in the antiviral assay except that uninfected cells were used. Cytotoxicity was assessed on day 4 in uninfected MT2 cells by using an XTT (2,3-bis[2-Methoxy-4-nitro-5-sulfophenyl]-2H-tetrazolium-5-carboxanilide inner salt)-based colorimetric assay (Sigma-Aldrich, St Louis, Mo.).

Cn1nc(NS(C)(=O)=O)c2c(Cl)ccc(-n3c([C@H](Cc4cc(F)cc(F)c4)NC(=O)Cn4nc(C(F)F)c5c4C(F)(F)[C@@H]4C[C@H]54)nc4nc(OCCC(C)(F)F)ccc4c3=O)c21 (atropisomer, axis not shown; (P)) [Example 1, N—((S)-1-((3P)-3-(4-chloro-1-methyl-3-(methylsulfonamido)-1H-indazol-7-yl)-7-(3,3-difluorobutoxy)-4-oxo-3,4-dihydropyrido[2,3-d]pyrimidin-2-yl)-2-(3,5-difluorophenyl)ethyl)-2-((3bS,4aR)-3-(difluoromethyl)-5,5-difluoro-3b,4,4a,5-tetrahydro-1H-cyclopropa[3,4]cyclopenta[1,2-c]pyrazol-1-yl)acetamide]
half-life ([1]; Wistar Han, plasma, sc, read-out: apparent half-life of compound in plasma (converted)): 1200 h
time drug concentrations were maintained above 5 ng/mL [1]: 87 days
clearance ([2]; IV 1 mg/kg): 1.77 mL/min/kg
half-life ([2]; IV 1 mg/kg): 7.8 h
Vd ([2]; IV 1 mg/kg, read-out: Vss): 1.14 L/kg
bioavailability ([2]; oral gavage 5 mg/kg vs IV 1 mg/kg): 76.7%
stability in dog liver microsomes relative to Example 60.2 ([3]; Example 1 versus Example 60.2): at least seven times more stable
half-life at 1 μM ([3]; dog, liver microsomes, pH 7.4, 1 μM compound, 1 mg/mL microsomes, NADPH, 37° C., read-out: Dog liver microsome T1/2): > 2 h
half-life at 1 μM [4]: > 2 h
half-life at 1 μM [5]: > 2 h
CC50 at 4 days [6]: > 10 µM
